Assays:
[1] = biological target: BACE2 (Rattus norvegicus (Rat), UniProt Q6IE75); assay: Assay for BACE inhibition by measuring cellular TMEM27 cleavage; type: cell-based; conditions: INS-TMEM27 (INS1e rat cell line, inducible hTMEM27); shed TMEM27 by ELISA
Description: Assay for BACE Inhibition by Measuring Cellular TMEM27 Cleavage:
The assay uses the principle of inhibition of human TMEM27 cleavage by endogenous cellular BACE2 in the Ins1e rat cell line and shedding from the cell surface into the culture medium, followed by detection in an ELISA assay Inhibition of BACE2 prevents the cleavage and shedding in a dose-dependent manner.
The stable cell line “INS-TMEM27” represents an INS1e-derived cell line with inducible expression (using the TetOn system) of full-length hTMEM27 in a doxycycline-dependent manner. The cells are cultured throughout the experiment in RPMI1640+Glutamax (Invitrogen) Penicillin/Streptomycin, 10% Fetal bovine serum, […], […], 100 micrograms/ml G418 and 100 microgram/ml hygromycin and are grown inadherent culture at 37° C. in a standard CO2 cell culture incubator.
INS-TMEM27 cells are seeded in 96-well plates. After 2 days in culture, BACE2 inhibitor is added in a range of concentrations as required by the assay and after a further two hours, doxycycline is added to a final concentration of 500 ng/ml. The cells are incubated for a further 46 hours and the supernatant harvested for detection of shed TMEM27.
An ELISA assay (using a pair of mouse anti-human-TMEM27 antibodies, raised against the extracellular domain of TMEM27) is used for detection of TMEM27 in the culture medium. An EC50 for BACE2 inhibition is calculated using the ELISA readout for each inhibitor concentration with standard curve-fitting software such as XLFit for the Excel spreadsheet program.

[2] = biological target: BACE1 (Homo sapiens (Human), UniProt P56817); assay: Cellular Aβ-lowering assay; type: cell-based; conditions: HEK293 cells stably expressing human APP wt (APP695); Aβ40 in supernatant by ELISA after 18-20 hrs
BACE1, sequence (P56817 46-501): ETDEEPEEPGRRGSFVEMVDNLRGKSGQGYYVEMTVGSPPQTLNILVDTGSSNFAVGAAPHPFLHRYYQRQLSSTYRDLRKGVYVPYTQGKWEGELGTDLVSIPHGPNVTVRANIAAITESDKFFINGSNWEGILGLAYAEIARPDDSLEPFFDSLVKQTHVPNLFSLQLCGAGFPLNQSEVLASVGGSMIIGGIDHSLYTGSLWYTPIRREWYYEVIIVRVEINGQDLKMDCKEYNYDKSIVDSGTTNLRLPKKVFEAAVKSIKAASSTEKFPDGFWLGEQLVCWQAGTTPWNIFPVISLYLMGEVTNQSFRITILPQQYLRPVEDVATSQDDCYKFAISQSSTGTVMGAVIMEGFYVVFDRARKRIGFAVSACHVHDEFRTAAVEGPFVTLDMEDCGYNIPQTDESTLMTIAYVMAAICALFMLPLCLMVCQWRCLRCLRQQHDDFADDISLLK
Method: Cellular Aβ-Lowering Assay: Human HEK293 cells which are stably transfected with a vector expressing a cDNA of the human APP wt gene (APP695) were used to assess the potency of the compounds in a cellular assay. The cells were seeded in 96-well microtiter plates in cell culture medium (Iscove, plus 10% (v/v) fetal bovine serum, glutamine, penicillin/streptomycin) to about 80% confluence and the compounds were added at a 10× concentration in 1/10 volume of medium without FCS containing 8% DMSO (final concentration of DMSO was kept at 0.8% v/v). After 18-20 hrs incubation at 37° C. and 5% CO2 in a humidified incubator the culture supernatant was harvested for the determination of Aβ40 concentrations. […] After blocking of non-specific binding sites with e.g. 1% BSA and washing, the culture supernatants were added in suitable dilutions together with a horseradish peroxidase-coupled Aβ detection antibody (e.g., antibody 4G8, Senetek, Maryland Heights, Mo.) and incubated for 5 to 7 hrs. Subsequently the wells of the microtiter plate were washed extensively with Tris-buffered saline containing 0.05% Tween 20 and the assay was developed with tetramethylbenzidine/H2O2 in citric acid buffer. After stopping the reaction with one volume […] the reaction was measured in an ELISA reader at 450 nm wavelength. The concentrations of Aβ in the culture supernatants were calculated from a standard curve obtained with known amounts of pure Aβ peptide.

BACE2, sequence (Q6IE75 63-514): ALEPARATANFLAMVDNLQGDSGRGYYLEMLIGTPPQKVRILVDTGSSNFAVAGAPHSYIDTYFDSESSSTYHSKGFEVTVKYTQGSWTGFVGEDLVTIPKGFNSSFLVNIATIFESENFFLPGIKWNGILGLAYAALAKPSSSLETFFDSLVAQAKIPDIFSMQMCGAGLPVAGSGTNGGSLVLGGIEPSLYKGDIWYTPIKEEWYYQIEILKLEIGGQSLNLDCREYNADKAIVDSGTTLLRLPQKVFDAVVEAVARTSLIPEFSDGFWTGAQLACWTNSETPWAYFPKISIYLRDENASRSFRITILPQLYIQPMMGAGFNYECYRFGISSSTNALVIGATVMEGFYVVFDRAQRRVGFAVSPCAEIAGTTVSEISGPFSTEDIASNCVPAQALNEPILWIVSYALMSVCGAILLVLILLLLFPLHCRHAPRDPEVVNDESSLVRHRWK

| Structure (SMILES) | IC50 [1] | IC50 [2] |
| --- | --- | --- |
| C[C@]1(c2cc(NC(=O)c3ccc(Cl)cn3)ccc2F)N=C(N)OC[C@@H]1OCC(F)(F)F [Example 45, 5-Chloro-pyridine-2-carboxylic acid {3-[(4R,5R)-2-amino-4-methyl-5-(2,2,2-trifluoro-ethoxy)-5,6-dihydro-4H-[1,3]oxazin-4-yl]-4-fluoro-phenyl}-amide] | 61 nM | 1 nM |
| C[C@]1(c2cc(NC(=O)c3ccc(C4CC4)cn3)ccc2F)N=C(N)OC[C@@H]1F [Example 22, 5-Cyclopropyl-pyridine-2-carboxylic acid [3-((4R,5R)-2-amino-5-fluoro-4-methyl-5,6-dihydro-4H-[1,3]oxazin-4-yl)-4-fluoro-phenyl]-amide] | 124 nM | 14 nM |
| C[C@]1(c2cc(NC(=O)c3cnc(OCC4CC4)cn3)ccc2F)N=C(N)OC[C@@H]1F [Example 16, 5-Cyclopropylmethoxy-pyrazine-2-carboxylic acid [3-((4R,5R)-2-amino-5-fluoro-4-methyl-5,6-dihydro-4H-[1,3]oxazin-4-yl)-4-fluoro-phenyl]-amide] | 590 nM | 5 nM |
| C[C@]1(F)COC(N)=N[C@]1(C)c1cc(NC(=O)c2ccc(C#N)cn2)ccc1F [Example 38, 5-Cyano-pyridine-2-carboxylic acid [3-((4R,5R)-2-amino-5-fluoro-4,5-dimethyl-5,6-dihydro-4H-[1,3]oxazin-4-yl)-4-fluoro-phenyl]-amide] | 23 nM | 0.4 nM |
| C[C@]1(c2cc(NC(=O)c3ccc(OCC(F)(F)F)cn3)ccc2F)N=C(N)OC[C@@H]1F [Example 17, 5-(2,2,2-Trifluoro-ethoxy)-pyridine-2-carboxylic acid [3-((4R,5R)-2-amino-5-fluoro-4-methyl-5,6-dihydro-4H-[1,3]oxazin-4-yl)-4-fluoro-phenyl]-amide] | 2300 nM | 8 nM |
| C[C@]1(c2cc(NC(=O)c3ccc(F)cn3)ccc2F)N=C(N)OC[C@@H]1OCC(F)(F)F [Example 46, 5-Fluoro-pyridine-2-carboxylic acid {3-[(4R,5R)-2-amino-4-methyl-5-(2,2,2-trifluoro-ethoxy)-5,6-dihydro-4H-[1,3]oxazin-4-yl]-4-fluoro-phenyl}-amide] | 65 nM | 2 nM |
| C[C@]1(c2cc(NC(=O)c3cnc(Cl)s3)ccc2F)N=C(N)OC[C@@H]1F [Example 26, 2-Chloro-thiazole-5-carboxylic acid [3-((4R,5R)-2-amino-5-fluoro-4-methyl-5,6-dihydro-4H-[1,3]oxazin-4-yl)-4-fluoro-phenyl]-amide] | 1400 nM | 81 nM |
| C[C@]1(c2cc(NC(=O)c3ccc(C#N)cn3)ccc2F)N=C(N)OC[C@@H]1OCC(F)(F)F [Example 47, 5-Cyano-pyridine-2-carboxylic acid {3-[(4R,5R)-2-amino-4-methyl-5-(2,2,2-trifluoro-ethoxy)-5,6-dihydro-4H-[1,3]oxazin-4-yl]-4-fluoro-phenyl}-amide] | 268 nM | 1 nM |
| C[C@]1(F)COC(N)=N[C@]1(C)c1cc(NC(=O)c2ccc(F)cn2)ccc1F [Example 42, 5-Fluoro-pyridine-2-carboxylic acid [3-((4R,5R)-2-amino-5-fluoro-4,5-dimethyl-5,6-dihydro-4H-[1,3]oxazin-4-yl)-4-fluoro-phenyl]-amide] | 74 nM | 11 nM |
| C[C@]1(c2cc(NC(=O)c3ncc(Cl)cc3F)ccc2F)N=C(N)OC[C@@H]1F [Example 8, 5-Chloro-3-fluoro-pyridine-2-carboxylic acid [3-((4R,5R)-2-amino-5-fluoro-4-methyl-5,6-dihydro-4H-[1,3]oxazin-4-yl)-4-fluoro-phenyl]-amide] | 6 nM | 2 nM |
| C[C@]1(c2cc(NC(=O)c3ncc(C#N)cc3Cl)ccc2F)N=C(N)OC[C@@H]1F [Example 7, 3-Chloro-5-cyano-pyridine-2-carboxylic acid [3-((4R,5R)-2-amino-5-fluoro-4-methyl-5,6-dihydro-4H-[1,3]oxazin-4-yl)-4-fluoro-phenyl]-amide] | 10 nM | 2 nM |

Source: patent US8754075B2, “1,3-oxazines as BACE1 and/or BACE2 inhibitors” (Hoffmann-La Roche Inc., priority 2011, dated 2014)
